# Where two headings read alike, the source gives them in different places.
# What was measured:
# [1] = tested on: NCI-H1650; experiment: CellTiter Glo 3D spheroid proliferation/survival, 5 days, NCI-H1650, 0.0005-500 nM (Example 10); assay type: cell-based, human; details: spheroids; for IC50: 0.0005-500 nM
# Procedure: One target was assessed: EGFR.
# The ability of the BCL-xL antibody drug conjugates to inhibit cell proliferation and survival was assessed using the Promega CellTiter-Glo® proliferation assay.
# Cell lines were cultured in media that is optimal for their growth at 5% CO2, 37° C. in a tissue culture incubator. Prior to seeding for the proliferation assay, the cells were split at least 2 days before the assay to ensure optimal growth density. […] Cell viability and cell density were determined using a cell counter (Vi-Cell XR Cell Viability Analyzer, Beckman Coulter).
# Cells were seeded at a density of 3,000 cells per well in 45 uL of standard growth media. Plates were spun in a centrifuge for 5 minutes and 1,000 RPM. Plates were incubated at 5% CO2, 37° C. for 72 hours in a tissue culture incubator. On the day of dosing, EGFR targeting BCL-xL ADCs were prepared at 1OX in standard growth media. The prepared drug treatments were then added to the cells resulting in final concentrations of 0.0005-500 nM and a final volume of 50 μL per well. Each drug concentration was tested in quadruplets. Plates were incubated at 5% CO2, 37° C. for 5 days in a tissue culture incubator.
# Cell viability was assessed through the addition of 40 μL of CellTiter Glo 3D Cell Viability Assay substrate (Promega, cat #G9681), a reagent which lyses cells and measures total adenosine triphosphate (ATP) content. Wells were mixed thoroughly and plates were incubated at room temperature for 30 minutes to stabilize luminescent signals prior to reading using a luminescence reader (EnVision Multilabel Plate Reader, PerkinElmer).
# To evaluate the effect of the drug treatments, luminescent counts from wells containing untreated cells (100% viability) were used to normalize treated samples. […] IC50 and Amax values were extrapolated from the resultant curves.
# [2] = ADC stability study: % aggregates by SEC after incubation at 37° C. for 168 h; assay type: physicochemical
# Procedure: Size Exclusion Chromatography: Size exclusion chromatography (SEC) was performed for quality control of each ADCs by measuring monomer percentage of the conjugate. The analysis was performed on analytical column Superdex 200 Increase 5/150 GL (GE Healthcare, 28990945) in isocratic conditions 100% PBS pH7.4 (Sigma Life Science, P3813, 10PAK), flow 0.45 mI/min for 12 minutes. The % aggregate fraction of the conjugate sample was quantified based on the peak area absorbance at 280 nm. Its calculation was based on the ratio between the high molecular weight eluent at 280 nm divided by the sum of peak area absorbance at the same wavelength of the high molecular weight and monomeric eluents multiplied by 100.
# Characterization of the exemplary ADCs is summarized in Table 13 (coupling, LC-MS method, OAR, aggregation status, ADO stability and yield). The average OAR values were determined using the above LC-MS methods and the percentage of aggregates was measured by size exclusion chromatography (SEC) during the quality control of the ADO and after the stability study (incubation at 37° C. for 168 h).
# [3] = tested on: ALL-SIL cells; experiment: CellTiterGlo (CTG) cell viability, 72 h, ALL-SIL (Example 8); assay type: cell-based
# Procedure: ALL-SIL cells were cultivated in RPMI supplemented with 20% heat inactivated fetal bovine serum, penicillin (100 IU/ml), streptomycin (100 μg/ml) and L-glutamine (2 mM). Cell lines were cultured at 37° C. in a humidified atmosphere containing 5% CO2. Cells were seeded in 96 well clear bottom plates (96 well clear-bottom, white, Corning reference 3903) and exposed to the payloads or ADCs for 72 h (serially diluted; 9 concentrations each, triplicates). Effects of payloads or ADCs on cell viability were assessed after 3 days of incubation at 37° C./5% CO2 by quantification of cellular ATP levels using CellTiterGlo at 75 μL reagent/well. All the conditions were tested in triplicates. Luminescence was quantified on a multipurpose plate reader. IC50s were calculated using standard four-parametric curve fitting. […] Each experiment was performed at least twice, with results being reproducible.
# [4] = tested on: DND-41 cells; experiment: CellTiterGlo (CTG) cell viability, 72 h, DND-41 (Example 8); assay type: cell-based
# Procedure: DND-41 cells were cultivated in RPMI supplemented with 10% heat inactivated fetal bovine serum, penicillin (100 IU/ml), streptomycin (100 μg/ml) and L-glutamine (2 mM). Cell lines were cultured at 37° C. in a humidified atmosphere containing 5% CO2. […] Effects of payloads or ADCs on cell viability were assessed after 3 days of incubation at 37° C./5% CO2 by quantification of cellular ATP levels using CellTiterGlo at 75 μL reagent/well. All the conditions were tested in triplicates. Luminescence was quantified on a multipurpose plate reader. IC50s were calculated using standard four-parametric curve fitting.
# [5] = tested on: H1650 cells; experiment: CellTiterGlo (CTG) cell viability, 3D, 120 h, H1650 (Example 8); assay type: cell-based, human; details: Homo sapiens, NCI-H1650, H1650 3D
# [6] = tested on: ALL-SILL (T-ALL); experiment: CellTiter-Glo viability 72 h, single agent or 1/1 combination, ALL-SIL (Example 9); assay type: cell-based; details: single agent or 1/1 combination as labelled
# Procedure: Cell lines were cultured in the media described above at 37° C. in a humidified atmosphere containing 5% CO2. […] Effects of payloads or ADCs on cell viability were assessed after 3 days of incubation at 37° C./5% CO2 by quantification of cellular ATP levels using CellTiter-Glo reagent (Promega Ref: G7571) at 75 μL reagent/well. All the conditions were tested in triplicates. Luminescence was quantified on a multipurpose plate reader. IC50s were calculated using standard four-parametric curve fitting.
# [7] = experiment n1, read-out: ALLSIL CTG 72 h IC50 nM n1
# [8] = experiment n2, read-out: ALLSIL CTG 72 h IC50 nM n2
# [9] = mean of n1 and n2, read-out: ALLSIL CTG 72 h IC50 nM Mean of n1 and n2
# [10] = experiment n1, read-out: DND41 CTG 72 h IC50 nM n1
# [11] = experiment n2, read-out: DND41 CTG 72 h IC50 nM n2
# [12] = mean of n1 and n2, read-out: DND41 CTG 72 h IC50 nM Mean of n1 and n2
# [13] = n1, read-out: ALL-SILL (T-ALL) IC50 n1
# [14] = n2, read-out: ALL-SILL (T-ALL) IC50 n2
Compound,Stab w1 +37° C. % Agg (by SEC) [2] [%],"IC50 [3, 7] [nM]","IC50 [3, 8] [nM]","IC50 [3, 9] [nM]","IC50 [4, 10] [nM]","IC50 [4, 11] [nM]","IC50 [4, 12] [nM]",also measured
COCCOCCOCCOCCOCCOCCOCCOCCn1cc(COC(=O)N(Cc2cn(CCOCCOCCOCCOCCOCCOCCOCCOC)nn2)Cc2cc(NC(=O)[C@H](CCCNC(N)=O)NC(=O)[C@@H](NC(=O)CCOCCN3C(=O)CC(C)C3=O)C(C)C)ccc2C[N+](C)(C)CC#Cc2ccc(OCCCc3sc(N4CCCc5c4nnc(Nc4nc6ccccc6s4)c5C)nc3C(=O)O)c(F)c2)nn1 (mixture of isomers) [EGFR1-L1A-P1],,,,,,,,IC50 [1]: < 0.686 nM
COCCOCCOCCOCCOCCOCCOCCOCCn1cc(COC(=O)N(Cc2cn(CCOCCOCCOCCOCCOCCOCCOCCOC)nn2)Cc2cc(NC(=O)[C@H](CCCNC(N)=O)NC(=O)[C@@H](NC(=O)CCOCCN3C(=O)CC(C)C3=O)C(C)C)ccc2C[N+](C)(C)CC#Cc2ccc(OCCCc3sc(N(C)c4cc(C)c(Nc5nc6ccccc6s5)nn4)nc3C(=O)O)c(F)c2)nn1 (mixture of isomers) [EGFR1-L1A-P2],,,,,,,,IC50 [1]: < 6.17 nM
Cc1c(Nc2nc3ccccc3s2)nnc2c1CCCN2c1nc(C(=O)O)c(CCCOc2ccc(C#CC[N+](C)(C)Cc3ccc(NC(=O)[C@H](CCCNC(N)=O)NC(=O)[C@@H](NC(=O)CCOCCN4C(=O)CC(C)C4=O)C(C)C)cc3CN(C)C(=O)OCc3cn(CCOCCOCCOCCOCCOCCOCCOCCOCCC(=O)O)nn3)cc2F)s1 (mixture of isomers) [EGFR1-L3A-P1],,,,,,,,NCI-H1650 Amax (Span) [1]: >100; IC50 [1]: < 0.686 nM
Cc1c(Nc2nc3ccccc3s2)nnc2c1CCCN2c1nc(C(=O)O)c(CCCOc2ccc(C#CCN(C)C(=O)COc3ccc(NC(=O)[C@H](CCCNC(N)=O)NC(=O)[C@@H](NC(=O)CCOCCN4C(=O)CC(C)C4=O)C(C)C)cc3CN(C)C(=O)OCc3cn(CCOCCOCCOCCOCCOCCOCCOCCOCCC(=O)O)nn3)cc2F)s1 (mixture of isomers) [EGFR1-L3C-P3],,,,,,,,NCI-H1650 Amax (Span) [1]: 100.6
CC(=O)C1=C(CCCOc2ccc(C#CCC(C)(C)Cc3ccc(NC(=O)[C@H](CCCNC(N)=O)NC(=O)[C@@H](NC(=O)CCOCCN4C(=O)CC(C)C4=O)C(C)C)cc3)cc2C)CC(C2CCCC3C2=NN=C(NC2=Nc4ccccc4C2)C3C)=C1 (stereo partly drawn) [Ab D - L9A-P1],8,0.025,0.037,0.031,0.16,0.14,0.15,
Cc1c(Nc2nc3ccccc3s2)nnc2c1CCCN2c1nc(C(=O)O)c(CCCOc2ccc(C#CCN3CCN(C(=O)OCc4ccc(NC(=O)[C@H](CCCNC(N)=O)NC(=O)[C@@H](NC(=O)CCOCCN5C(=O)CC(C)C5=O)C(C)C)cc4)CC3)cc2F)s1 (stereo partly drawn) [Ab D - L9C-P17],6,0.006,0.01,0.008,2.1,0.38,1.24,
Cc1cc(N(CCCO)C2=NC(C(=O)O)=C(CCCOc3ccc(C#CCN(C)C(=O)OCc4ccc(NC(=O)[C@](C)(CCCNC(N)=O)NC(=O)[C@@H](NC(=O)CCOCCN5C(=O)CC(C)C5=O)C(C)C)cc4)cc3F)C2)nnc1Nc1nc2ccccc2s1 (stereo partly drawn) [Ab D - L9C-P45],2,0.36,0.38,0.37,> 100,> 100,> 100,
Cc1cc(N(CCCC(O)CO)C2=NC(C(=O)O)=C(CCCOc3ccc(C#CCN(C)C(=O)OCc4ccc(NC(=O)[C@H](CCCNC(N)=O)NC(=O)[C@@H](NC(=O)CCOCCN5C(=O)CC(C)C5=O)C(C)C)cc4)cc3F)C2)nnc1Nc1nc2ccccc2s1 (stereo partly drawn) [Ab D - L9C-P46],6,0.18,0.2,0.19,> 100,> 100,> 100,
C=C(C)CCCC[C@](C)(NC(=O)[C@@](C)(NC(=O)CCOCCN1C(=O)CC(C)C1=O)C(C)C)C(=O)Nc1ccc(CC(C)(C)CC#Cc2ccc(OCCCC3=C(C(C)=O)N=C(N4CCCc5c4nnc(Oc4nc6ccccc6o4)c5C)C3)c(C)c2)c(S(=O)(=O)O)c1 (stereo partly drawn) [Ab D - L27A-P1],9,0.028,0.018,0.023,0.21,0.28,0.245,
"Cc1c(Nc2nc3ccccc3s2)nnc2c1CCCN2c1ccc(-c2cnn(C[C@]34C[C@]5(C)C[C@](C)(C3)C[C@@](OCCN3CCCCCC3)(C5)C4)c2C)c(C(=O)O)n1 [P33, 3-[1-[[3-[2-(azepan-1-yl)ethoxy]-5,7-dimethyl-1-adamantyl]methyl]-5-methyl-pyrazol-4-yl]-6-[3-(1,3-benzothiazol-2-ylamino)-4-methyl-6,7-dihydro-5H-pyrido[2,3-c]pyridazin-8-yl]pyridine-2-carboxylic acid]",,,,,,,,"IC50 ([5]; experiment n1, read-out: H1650 3D CTG IC50 n1): 0.89 nM; IC50 ([5]; experiment n2, read-out: H1650 3D CTG IC50 n2): 0.57 nM; IC50 ([5]; mean of n1 and n2, read-out: H1650 3D CTG IC50 Mean of n1 and n2): 0.73 nM; IC50 ([6]; mean, read-out: ALL-SILL (T-ALL) IC50 mean): 0.145 nM; IC50 [6, 13]: 0.1 nM; IC50 [6, 14]: 0.19 nM"
"Cc1c(Nc2nc3ccccc3s2)nnc2c1CCCN2c1ccc(-c2cnn(CC34CC5(C)CC(C)(CC(CCCNCCCO)(C5)C3)C4)c2C)c(C(=O)O)n1 [P40, 6-[3-(1,3-benzothiazol-2-ylamino)-4-methyl-6,7-dihydro-5H-pyrido[2,3-c]pyridazin-8-yl]-3-[1-[[3-[3-(3-hydroxypropylamino)propyl]-5,7-dimethyl-1-adamantyl]methyl]-5-methyl-pyrazol-4-yl]pyridine-2-carboxylic acid]",,,,,,,,"IC50 [6, 13]: 1.06 nM; IC50 [6, 14]: 1.26 nM"
